Where two headings read alike, the source gives them in different places.
Experiments:
[1] = system: human 132 l N1 astrocytoma; details: dose-dependent; cited from earlier work
[2] = system: rat C6 glioma; details: dose-dependent; cited from earlier work
[3] = target: T1, peripheral-type benzodiazepine receptor (PBR) (Homo sapiens, UniProt P30536); test: Radioligand binding assay, inhibition of [^3H]PK 11195 binding to HL-60 homogenates
T1 construct: Cell homogenates (50 μg protein) were incubated with 0.5-50 nM [^3H]; PK 11195; endogenous in cells; host or cells: HL-60 cell homogenate
T1 sequence (P30536 whole entry): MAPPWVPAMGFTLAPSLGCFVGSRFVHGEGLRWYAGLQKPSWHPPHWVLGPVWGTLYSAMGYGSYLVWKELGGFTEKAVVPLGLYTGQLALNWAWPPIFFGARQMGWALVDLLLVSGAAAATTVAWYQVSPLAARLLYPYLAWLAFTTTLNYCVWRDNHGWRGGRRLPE
Method: HL-60 cells were harvested by centrifugation at 600 g for 5 min and washing in phosphate-buffered saline. The resulting cell pellet was homogenised in 50 mM Tris/HCl buffer, pH 7.4 (2 ml), using an Ultraturrax homogeniser (10 sec) and then passed 5 times through a 21 gauge needle. Cell homogenates (50 μg protein) were incubated with 0.5-50 nM [^3H] PK 11195 in 50 mM Tris/HCl buffer, pH 7.4 (incubation buffer), in a total volume of 0.5 ml on ice. Total and non-specific/non-saturable binding in each case was determined in the absence and presence of 10 μM unlabelled PK 11195 respectively. All samples were incubated in triplicate for 60 min. The incubation mixtures were then filtered and counted as previously described (O'Beirne, et al., 1988). When testing the potency of a compound to inhibit [^3H] PK 11195 binding, samples were incubated with 2 nM [3H] PK 11195 and various concentrations (0.1 nM to 1 μM) of compound and subsequently treated exactly as above. The resulting Ki values were then generated by the use of the computer programs EBDA and LIGAND.
The amount of radioactivity bound in the presence of the displacer was expressed as a percentage of control bonding and the values represent the mean±SEM of triplicate determinations from one representative experiment performed at least twice. The Ki values were obtained as described in Methods section.

[4] = system: JNK1 and JNK2; type: cell-based, human; details: K562
[5] = system: K562 cells; test: Apoptosis in K562 cells, cytospin and staining; type: cell-based, human
[6] = system: CML cell lines K562, KYO.1 and Lama 84; test: Apoptosis in CML cell lines, cytospin and staining; type: cell-based, human; details: CML cells
[7] = system: HL-60 cells; test: Apoptosis in HL-60 cells, cytospin and Rapi-Diff staining; details: for induction of apoptosis at 10 μM / induction of apoptosis at a higher concentration: HL 60 cells; for induction of apoptosis at a higher concentration: higher concentration printed as 10 μM; for degree of necrosis: HL-60 cells, 16 hours; for induction of apoptosis at 10 μM / degree of necrosis: 10 μM; for cytotoxicity at 10 µM: Homo sapiens, HL-60, 16 h, read-out: % Apoptosis
[8] = system: PARP (poly ADP-ribose polymerase); test: Western blot of PARP cleavage in Hela cells; type: cell-based, human
Method: CML cells were seeded at 2×10^6 cells in 5 mls of growth medium, and treated with 10 μM PBOX-6 for 16 and 24 hr. Hela cells were seeded at 1×10^6 cells per 25 cm^2 flask. Following a 24 hour incubation, the cells were treated with PBOX-3 for a further 48 hours and the cells were scraped up. Cells were then centrifuged at 500 g for 5 min, the supernatant was removed and the pellet was resuspended in 200 μl of PARP sample buffer (62.5 mM Tris/HCl pH 6.8, 6 M urea, 10% (w/v) glycerol, 2% (w/v) SDS, 0.00125% bromophenol blue, and 5% (v/v) β-mercaptoethanol was added immediately before use). Samples were sonicated for 15 sec before aliquoting into 15 μl volumes. Samples were stored at −20° C. until use. 10-15 μl of thawed samples were resolved directly on a 10% polyacrylamide gel and transferred onto PVDF membrane at room temperature using wet transfer apparatus. After transfer, the membrane was blocked overnight in PBS containing 5% dry milk (Marvel). After blocking, the membrane was washed in PBST for 2×2 minutes before incubating for 1 hr with anti-PARP antibody (2 μg/ml in PBST containing 1% dry milk). Following incubation the membrane was washed for 20 minutes in PBST and incubated with goat anti mouse HRP conjugated secondary antibody (1:1000 dilution in PBST containing 1% dry milk). After washing in PBST for 30 minutes, ECL was used to visualise the proteins. […]

[9] = system: Jurkat cells; type: cell-based, human; details: 200 μM
Method: This assay was set up as described by Kohn et al., 1976 with the following modifications.
Cells were seeded at 0.4×10^6 cells/ml and were in the logarithmic phase of growth. […] Cells harvested for the experiments were at a density of 2×10^6 cells/ml.
Cells (1×10^6) were labelled with [^3H] thymidine (sp. act. 2 Ci/mmol) (0.2 μCi/ml) and 1 μM unlabelled thymidine, and incubated for 20 hr. Cells were harvested by centrifugation at 500×g for 5 mins following by two washes in PBS and the pellet was resuspended in 3 ml of PBS. Cells were aliquoted into 1 ml amounts in a 24 well plate and allowed to recover for 1 hr at 37° C. before treating with indicated compounds. Following treatment, cells were washed once in PBS and resuspended in 250 μl of PBS. An aliquot of cells (200 μl) was loaded directly onto a 25 mm diameter glass fiber filter, pore size of 0.2 μM. The cells were lysed on the filter by the addition of 5 ml lysis buffer (2% (w/v) SDS, 10 mM disodium EDTA (pH 10) supplemented with 0.5 mg/ml proteinase K. The lysis buffer was allowed to flow slowly through the filter without suction. Filters were washed using 3 ml wash solution (0.02M Na3EDTA pH 10) allowing it to flow without suction. Filters were eluted in the dark with an alkaline solution (0.04M EDTA plus tetrapropylammonium hydroxide (10% in H2O ) added in the amount required to give pH 12.1). The elution apparatus consisted of a filter funnel with output tubing passing through a peristaltic pump to a collector. Elution took place overnight at a flow rate of 0.05 ml/min. Following elution, filters were treated with 0.4 ml HCl (1N) for 1 hr at 70° C. followed by 2.5 ml NaOH (0.4N) for 30 min at room temp. Scintillation fluid (10 ml) was added and radioactivity remaining on the filters was determined by scintillation counting.

[10] = system: Jurkat cells; type: cell-based, human; details: 200 μM; remark: listed apart in the source
[11] = system: tyrosine phosphorylated proteins; test: Protein tyrosine phosphorylation Western blot, K562 cells; type: cell-based, human; details: K562, 100 μM in DMSO, 1 hr prior to PBOX-6
Method: Jurkat and CML cells (5×10^6) were harvested by centrifuigation at 1800 g for 10 min at 4° C. After being washed once with ice-cold phosphate-buffered saline, the cell pellet was suspended in 100 μl of ice-cold lysis buffer (50 mM Tris-HCl, pH 8.0, 150 mM NaCl, 0.1%.SDS, 1% Triton X-100, 1 mM sodium 1 mM phenylmethylsulfonyl, 10 ng/ml leupeptin and 10 ng/ml of aprotinin). The cells were left to sit on ice for 10 min and then centrifuged at 20,000 g for 20 min. The resulting supernatant was stored at −70° C. until measurement of tyrosine phosphorylation. Protein determination was measured by using the Bradford assay. Equal amounts of protein were resolved by SDS-polyacrylamide gel electrophoresis in 15% gels and transferred onto polyvinylidene difluoride (PVDF) membranes. Membranes were blocked with Tris-buffered saline with Tween 20 (10 mM Tris-HCl, pH 8.0, 150 mM NaCl, 0.05% Tween 20) containing 1% w/v BSA and probed with anti-phosphotyrosine antibody. Blots were washed, incubated with goat anti-mouse IgG peroxidase conjugate and developed by ECL according to the manufacturer's recommendations.

[12] = HL-60 homogenates, 2 nM [^3H]PK 11195, mean±SEM, read-out: Inhibition of [^3H]PK 11195 binding to the PBR, Ki value

**Q.** For `CCN(CC)C(=O)OC1=C(c2ccc(C)cc2)Oc2ccccc2-n2cccc21` [PBOX-21], which “inhibition of proliferation, without being cytotoxic” value [1] is on record?
**A.** inhibit at micromolar concentrations

**Q.** What about the “inhibition of proliferation, without being cytotoxic” value [2] of the same compound?
**A.** inhibit at micromolar concentrations

**Q.** For `CCC(C)N(C)C(=O)c1cc2ccccc2c(-c2ccccc2Cl)n1` (stereo not shown) [[^3H] PK 11195, reference compound], which “Bmax of [^3H] PK 11195 binding” value ([3]; HL-60 cell homogenates) is on record?
**A.** 9.5±1.5 pmol/mg of protein

**Q.** For `COc1cc([C@@H]2c3cc4c(cc3[C@@H](O[C@@H]3O[C@@H]5CO[C@@H](C)O[C@H]5[C@H](O)[C@H]3O)[C@H]3COC(=O)[C@H]23)OCO4)cc(OC)c1O` [etoposide], which “effect of Topo II inhibitor pretreatment on PBOX-6 induced JNK activation” value [4] is on record?
**A.** failed to prevent against PBOX-6 induced activation of JNK

**Q.** What about the “effect of pretreatment on PBOX-6 induced apoptosis” value ([5]; K562, 1 hour prior to PBOX-6 16 hours) of the same compound?
**A.** protects against apoptosis

**Q.** What about the apoptosis ([5]; K562, up to 24 hours) of the same compound?
**A.** failed to undergo apoptosis

**Q.** What about the induction of apoptosis ([5]; K562 cells) of the same compound?
**A.** does not induce apoptosis

**Q.** What does the source list for `CCC(C)N(C)C(=O)c1cc2ccccc2c(-c2ccccc2Cl)n1` (stereo not shown) [PK 11195, 1-(2-chlorophenyl)-N-methyl-N-(1-methylpropyl)-3-isoquinolinecarboxamide]?
**A.** induction of apoptosis at 10 μM [6]: failed to induce apoptosis; induction of apoptosis at 100 μM [6]: apoptosis was induced, although not to the same extent; inhibition of proliferation, without being cytotoxic [1]: inhibit at micromolar concentrations; induction of apoptosis at 10 μM [7]: did not induce apoptosis; induction of apoptosis at a higher concentration [7]: induced apoptosis; inhibition of proliferation, without being cytotoxic [2]: inhibit at micromolar concentrations

**Q.** Which results are given for `CN1C(=O)CN=C(c2ccc(Cl)cc2)c2cc(Cl)ccc21` [Ro5-4864, 7-chloro-5-(4-chlorophenyl)-1,3-dihydro-1-methyl-2-H-1,4-benzodiazepin-2-one]?
**A.** induction of apoptosis at 10 μM [6]: failed to induce apoptosis; induction of apoptosis at 100 μM [6]: apoptosis was induced, although not to the same extent; inhibition of proliferation, without being cytotoxic [1]: inhibit at micromolar concentrations; induction of apoptosis at 10 μM [7]: did not induce apoptosis; induction of apoptosis at a higher concentration [7]: induced apoptosis; inhibition of proliferation, without being cytotoxic [2]: inhibit at micromolar concentrations

**Q.** Which results are given for `CC(=O)OC1=C(c2ccccc2)Oc2cc3ccccc3cc2-n2cccc21` [PBOX-3, 4-Acetoxy-5-phenylnaphto[2,3-b]pyrrolo[1,2-d][1,4]oxazepine]?
**A.** Ki [3]: 6 ± 1.9 nM; PARP cleavage [8]: induced PARP cleavage; degree of necrosis [7]: negligible; cytotoxicity at 10 µM [7]: 23.5 ± 2.1%

**Q.** With `C[C@@H](CN1CC(=O)NC(=O)C1)N1CC(=O)NC(=O)C1` [ICRF 187, reference compound] as the compound, how does the “effect of pretreatment on etoposide induced DNA strand breaks” value [9] read?
**A.** prevented etoposide induced DNA strand breaks

**Q.** What about the “effect of Topo II inhibitor pretreatment on PBOX-6 induced JNK activation” value [4] of the same compound?
**A.** failed to prevent against PBOX-6 induced activation of JNK

**Q.** And the “effect of pretreatment on PBOX-6 induced apoptosis” value ([5]; K562, 200 μM 1 hour, then PBOX-6 10 μM 16 hours)?
**A.** reduced but did not completely inhibit

**Q.** And the “effect of pretreatment on etoposide induced apoptosis” value [10]?
**A.** inhibited apoptosis induced by etoposide

**Q.** Which “effect of tyrosine kinase inhibitor pretreatment on PBOX-6 induced apoptosis” value ([5]; K562, genistein 100 μM, herbimycin A 5 μM, tyrophostin 200 μM) does the source give for `O=c1c(-c2ccc(O)cc2)coc2cc(O)cc(O)c12` [genistein, reference compound] here?
**A.** completely inhibited the induction of apoptosis

**Q.** What about the “effect of pretreatment on PBOX-6 induced protein phosphorylation” value [11] of the same compound?
**A.** prevented the phosphorylation of these two proteins

**Q.** For `CNC(=O)OC1=C(c2cccc3ccccc23)Oc2ccccc2-n2cccc21` [PBOX-7, 7-[(Methylcarbamoyl)oxy]-6-(1-naphthyl)pyrrolo[2,1-d][1,5]-benzoxazepine], which Ki [3, 12] is on record?
**A.** 1.7 ± 0.7 nM

**Q.** What about the degree of necrosis [7] of the same compound?
**A.** negligible

**Q.** What about the cytotoxicity at 10 µM [7] of the same compound?
**A.** 40.7 ± 2.5%

**Q.** With `CC(=O)OC1=C(c2cccc3ccccc23)Oc2ccccc2-n2cccc21` [PBOX-4, 7-Acetoxy-6-(1-naphthyl)pyrrolo[2,1-d][1,5]benzoxazepine] as the compound, how does the Ki [3, 12] read?
**A.** 1.9 ± 2.3 nM

**Q.** And the cytotoxicity at 10 µM [7]?
**A.** 42.1 ± 0.6%

From patent US6806267B1, “Apoptosis-inducing compounds” (priority 1998, dated 2004)
